Data: patent US10988600B2, “Cyclodextrin-grafted cross-linked hyaluronic acid complexed with active drug substances and uses thereof” (GALDERMA S.A., priority 2016, dated 2021)

Assay: Solubility study of adapalene with randomly methylated β-cyclodextrins
Type: physicochemical
Protocol: A solubility study was performed by adding excess amounts of adapalene (5 mg) to six glass vials containing 10 mL aqueous solutions of increasing concentrations of randomly methylated β-cyclodextrins (0-7×10^−3 M) dissolved in 154 mM NaCl and 10 mM Na-phosphate (pH 7). The samples were mixed at room temperature for six days, and then they were centrifuged at 4000 rpm for 3 minutes. The supernatants were filtered through a 0.2 μm filter in order to remove undissolved adapalene. The UV absorbance of the filtrates was then measured at 320 nm in order to determine the concentration of dissolved adapalene. The concentration of adapalene in each sample was calculated from a calibration curve.
For sample 1, from the solubility diagram study in Example 16 containing 0.7 mM randomly methylated β-cyclodextrin and an excess of adapalene, 550 μl of the filtered sample, was added to a 2 ml Eppendorf tube. The sample was then lyophilized and the solvent exchanged to D2O.
Sample 2 containing 1.5 mM randomly methylated β-cyclodextrin and 0.15 mM of adapalene dissolved in D2O and 1% DMSO-d6 was prepared by adding 550 μl of the sample to a 2 ml Eppendorf tube. The sample was then lyophilized and the solvent exchanged again to D2O.

For COc1ccc(-c2ccc3cc(C(=O)O)ccc3c2)cc1C12CC3CC(CC(C3)C1)C2 [adapalene, 6-[3-(1-adamantyl)-4-methoxy-phenyl] naphthalene-2-carboxylic acid], the Solubility of adapalene (randomly methylated β-cyclodextrins 0-7×10^−3 M, 154 mM NaCl, 10 mM Na-phosphate pH 7, room temperature, six days (FIG. 3)) was “increases with increasing CD concentration”, the Complexed adapalene (sample 1: 0.7 mM randomly methylated β-cyclodextrin, excess adapalene, filtered, according to solubility diagram data) was “about 0.075 mM” and the Complexed adapalene (sample 2: 1.5 mM randomly methylated β-cyclodextrin and 0.15 mM adapalene in D2O and 1% DMSO-d6) was “about 0.15 mM”.
